Reference: patent publication US8609610B2, “Inhibitors of the trypsin-like site of the proteasome and methods of use thereof” (Trustees of Dartmouth College, priority 2011, dated 2013)

Experiments:
[1] = target: T1, chymotrypsin-like site of 26S proteasomes (Oryctolagus cuniculus, UniProt G1T4Q9); assay: Inhibition of purified 26S proteasomes, substrate Suc-LLVY-amc; assay type: biochemical, rabbit; conditions: >>30 no inhibition at 30 μM, >30 inhibition between 10 and 50% at 30 μM, read-out: IC50 for sites in 26S proteasomes: Chym-L
T1 sequence (G1T4Q9 1-263): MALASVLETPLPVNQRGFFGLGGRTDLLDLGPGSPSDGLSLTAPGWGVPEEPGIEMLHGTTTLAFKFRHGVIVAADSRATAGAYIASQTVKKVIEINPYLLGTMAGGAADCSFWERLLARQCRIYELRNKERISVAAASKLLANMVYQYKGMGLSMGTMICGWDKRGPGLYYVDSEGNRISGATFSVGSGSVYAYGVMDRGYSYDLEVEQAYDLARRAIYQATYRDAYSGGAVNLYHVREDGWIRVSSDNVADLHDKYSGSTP
Description: (§1) 26S proteasomes were purified from rabbit muscle using known methods (Screen, et al. (2010) supra). […] NOVEX Bis-Tris gels (12%, Invitrogen) with MOPS running buffer were used for electrophoretic separation of catalytic subunits modified by active-site probes. Inhibition of active sites inside cells was assayed using luminescent PROTEASOMEGLO assay (Promega; Moravec, et al. (2009) Anal. Biochem. 387:294-302) according to known methods (Britton, et al. (2009) supra).

Cathepsin B, H, L, S = assay: Cathepsin activity with pan-cathepsin substrate Z-FR-amc; assay type: cell-based
Description: (§2) Cathepsin B, H, L, S activity was measured with pan-cathepsin substrate Z-FR-amc (Kirschke & Wiederanders (1994) Methods Enzymol. 244:500-11) in extracts of cytosol-less cells at pH 6.0 (Screen, et al. (2010) supra). Cathepsin D activity was measured in cytosol-less extracts using SENSOLYTE 520 Cathepsin D Fluorometric Assay Kit (AnaSpec). Combined cathepsin D and E activity was measured using the same kit, in which cathepsin D substrate provided with the kit was replaced with 7-Methoxycoumarin-[…](Dnp)-X′-NH2 (SEQ ID NO:10; where “X′” stand for D-Arg) internally quenched fluorogenic substrate of cathepsin D and E. In this case, pH 3.0 assay buffer used for cell extraction. All activity observed using both procedures was inhibited by more than 98% by specific inhibitor of aspartic proteases pepstatin A.

[2] = system: Caspase-3/7 activity in NCI-H929 and MM1.R cell lines; assay: APO-ONE caspase-3/7 assay; assay type: cell-based; conditions: combination of NC-001 and NC-002
Description: RPMI-8226 and NCI-H929 cells were cultured in RPMI-1640 supplemented with 10% fetal bovine serum, penicillin, streptomycin, and plasmocin in 5% CO2 humidified incubator. HEK-293T cells were cultured in DMEM containing 10% fetal calf serum, 10 units/mL penicillin, and 10 μg/mL streptomycin in a 7% CO2 humidified incubator. Viability of multiple myeloma cells was measured with ALAMAR BLUE mitochondrial dye conversion assay. Viability of peripheral blood mononuclear cells (PBMNCs) was measured using CELL TITER-GLO luminescent cell viability assay (Promega), which is based on quantification of ATP present in the cells. Caspase-3/7 activity was measured using APO-ONE 3/7 homogeneous assay (Promega).

[3] = system: trypsin-like site of 26S proteasomes; assay: Inhibition of purified 26S proteasomes, substrate Ac-RLR-amc; assay type: biochemical, rabbit
[4] = target: T2, trypsin-like site of 26S proteasomes (Oryctolagus cuniculus, UniProt G1SWK8); assay: as above; assay type: biochemical, rabbit; conditions: 26S proteasomes from rabbit muscles
T2 construct: IC50 for sites in 26S proteasomes: Tr-L; other: purified 26S proteasomes; other: 26S proteasomes from rabbit muscles
T2 sequence (G1SWK8 1-271): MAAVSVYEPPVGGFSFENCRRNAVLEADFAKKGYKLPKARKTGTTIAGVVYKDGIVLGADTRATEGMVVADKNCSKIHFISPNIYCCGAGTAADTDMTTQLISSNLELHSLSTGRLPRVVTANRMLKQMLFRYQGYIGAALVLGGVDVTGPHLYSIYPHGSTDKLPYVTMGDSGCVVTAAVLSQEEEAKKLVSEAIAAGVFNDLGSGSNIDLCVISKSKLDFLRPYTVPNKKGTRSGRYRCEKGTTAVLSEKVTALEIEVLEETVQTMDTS

[5] = target: caspase-like site of 26S proteasomes (Oryctolagus cuniculus, UniProt A0A5F9DQW2); assay: Inhibition of purified 26S proteasomes, substrate Ac-nLPnLD-amc; assay type: biochemical, rabbit; conditions: >>30 no inhibition at 30 μM, >30 inhibition between 10 and 50% at 30 μM, read-out: IC50 for sites in 26S proteasomes: Casp-L
caspase-like site of 26S proteasomes, sequence (A0A5F9DQW2 1-212): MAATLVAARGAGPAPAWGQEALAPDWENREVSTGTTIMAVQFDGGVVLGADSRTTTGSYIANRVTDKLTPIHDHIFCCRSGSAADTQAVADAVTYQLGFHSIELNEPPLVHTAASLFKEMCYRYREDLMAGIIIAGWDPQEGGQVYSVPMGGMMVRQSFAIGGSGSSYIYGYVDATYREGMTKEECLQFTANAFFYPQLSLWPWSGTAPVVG
Description: as §1

β2 and β2i sites = assay: MV-151 label-competition in extracts of RPMI-8226 MM cells; assay type: biochemical; conditions: extracts of RPMI-8226 cells, MV-151 probe
From the text: Multiple myeloma cells express constitutive proteasomes and immunoproteasomes, and substrates used for the measurement of activity were cleaved by both. To determine whether there were any differences in inhibition of constitutive proteasomes or immunoproteasomes by NC-002, NC-012, and NC-022, the fluorescent activity-based probe MV-151 (Verdoes, et al. (2006) Chem. Biol. 13:1217-1226) was used in a label-competition experiment. Extracts of RPMI-8226 MM cells (which express more immunoproteasomes than NCI-H929 cells) were treated first with the NC inhibitors and then with the MV-151 probe. This was followed by fractionation on SDS-PAGE to separate proteasome subunits and imaging to reveal those subunits labeled by the probe (i.e., unmodified by the inhibitors).

[6] = target: T3, trypsin-like sites (β2) of proteasome in MM cells (Homo sapiens, UniProt Q99436); assay: PROTEASOMEGLO assay of proteasome inhibition in MM cells; assay type: cell-based; conditions: NCI-H929 cells treated overnight
T3 construct: endogenous in cells; host or cells: NCI-H929, RPMI-8226 and other MM cell lines
T3 sequence (Q99436 44-277): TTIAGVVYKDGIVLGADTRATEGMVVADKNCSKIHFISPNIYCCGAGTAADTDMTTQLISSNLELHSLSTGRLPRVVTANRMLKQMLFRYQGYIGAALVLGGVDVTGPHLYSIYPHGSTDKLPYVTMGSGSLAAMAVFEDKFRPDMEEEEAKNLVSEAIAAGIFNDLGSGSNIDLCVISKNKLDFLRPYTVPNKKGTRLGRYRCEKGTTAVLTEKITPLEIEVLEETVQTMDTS

[7] = system: proteasome catalytic subunits in NCI-H929 cells; assay: Isolation and identification of polypeptides modified by az-NC-002; assay type: cell-based; conditions: BioP ligation, streptavidin isolation, mass-spectrometry
Description: Cells were treated with the activity-based site probe overnight and lysed with 50 mM Tris-HCl, 10% glycerol, 5 mM MgCl2, 0.5 mM EDTA, 0.5% CHAPS, 1 mM ATP. […] After on-beads trypsin digestion, samples were analyzed by LC-MS/MS (Florea, et al. (2010) Chem. Biol. 17:795-801). IRDYE 800 CW-conjugated streptavidin was purchased from Rockland, hsc71 antibodies from Abcam (Cat #19136), and β2 antibodies from Abgent (Cat #AP2914b).
To further confirm that NC-002, NC-012 and NC-022 were specific for the trypsin-like sites and that the biological activity was not due to off-target effects, az-NC-002 was synthesized as an NC-002-derived, activity-based probe. […] One major az-NC-002-specific streptavidin-reactive band was detected. […] A weaker band of slightly lower mobility, matching the mobility of β2i band, was also detected. […] A number of endogenously biotinylated proteins in the 70-100 kDa region were also detected and can serve as a loading control.
To further confirm that the probe covalently modified β2 and β2i subunits, proteasome was denatured after BioP modification, biotinylated polypeptides were isolated on streptavidin beads, and bound polypeptides were identified by mass-spectrometry after on-beads trypsin digestion. […] No peptides derived from other catalytic subunits were detected.

cathepsin D = target: T4, cathepsin D (Homo sapiens, UniProt P07339); assay: Cathepsin D activity assay (SENSOLYTE 520); assay type: cell-based
T4 construct: endogenous in cells
T4 sequence (P07339 65-412): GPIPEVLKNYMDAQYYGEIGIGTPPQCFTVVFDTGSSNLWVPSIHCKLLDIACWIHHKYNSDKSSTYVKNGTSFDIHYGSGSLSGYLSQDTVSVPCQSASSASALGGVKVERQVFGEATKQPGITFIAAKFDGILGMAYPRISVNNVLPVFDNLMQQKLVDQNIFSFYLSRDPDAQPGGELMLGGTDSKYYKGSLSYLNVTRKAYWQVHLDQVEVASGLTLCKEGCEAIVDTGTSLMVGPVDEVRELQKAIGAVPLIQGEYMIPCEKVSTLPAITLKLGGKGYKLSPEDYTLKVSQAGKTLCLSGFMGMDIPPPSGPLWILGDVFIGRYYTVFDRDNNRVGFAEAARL
Description: as §2

[8] = target: β2 (trypsin-like site) of proteasome in HEK-293T cells (Homo sapiens, UniProt P49720+Q99436); assay: Competition assay in living HEK-293T cells with activity-based probe; assay type: cell-based
Description: Proteasome inhibition in MM cells was measured with luminogenic substrates using PROTEASOMEGLO assay (Promega). […] An aliquot of culture was pelleted and medium was removed and replaced with PBS. The resulting cell suspension was mixed with luminogenic substrates in the manufacturer-provided lysis/assay buffer. After 3 minutes mixing on an orbital shaker, the plate was incubated in the dark for additional 17 minutes, followed by the measurements of the luminescence, performed in triplicate for each substrate/data point. Data were analyzed as for purified proteasomes. […] Cells (1×10^6 per well of a 6-well plate) were incubated with the inhibitors for 4 hours at 37° C. and this was followed by a 2 hour incubation with 5 μM BODIPY-TMR-epoxomicin. Subsequently, the medium was removed and the cells were washed with PBS and harvested. […] The supernatant was collected and the protein concentration was determined by the Bradford assay, and used to normalize gel loading. The samples were analysed by SDS-PAGE and fluorescent densitometry as described for competition experiment in cell lysates. IC50 values were calculated from three independent experiments using […] PRISM software.
Human embryonic kidney cells (some 1×10^6) were cultured in 6-well plates in DMEM containing 10% fetal calf serum, 10 units/mL penicillin and 10 μg/mL streptomycin in a 7% CO2 humidified incubator at 37° C. overnight. Part of the medium was taken and to this was added the appropriate inhibitor in DMSO (1 μL of a 1,000× stock solution), after which the medium was added to the cells. The cells were incubated with the inhibitors for 4 hours at 37° C. and this was followed by addition of MV151 (1 μL of a 5 mM stock solution in DMSO) and incubation for 2 hours at 37° C. Next, the medium was removed and the cells were washed with PBS and harvested. […] The supernatant was collected and the protein concentration was determined by the Bradford assay. All samples were normalized to the same protein concentration with lysis buffer.

β5 proteasome subunit = target: T5, β5 proteasome subunit (Homo sapiens, UniProt P20618+P28074); assay: Competition assay in HEK-293T cell lysate with MV151; assay type: biochemical; conditions: HEK-293T lysate, 5 μM
T5 construct: Whole cell lysates of HEK-293T or EL-4 cells were made by sonication; endogenous in cells; host or cells: HEK-293T
Description: Whole cell lysates of HEK-293T or EL-4 cells were made by sonication in 3 volumes of lysis buffer containing 50 mM Tris pH 7.5, 1 mM DTT, 5 mM MgCl2, 250 mM sucrose, 2 mM ATP, 0.025% digitonin. Protein concentration was determined by the Bradford assay. Cell lysates (13.5 μg total protein for HEK lysates and 9 μg total protein for EL-4 lysates) were exposed to the inhibitors for 1 hour at 37° C. prior to incubation with MV151 (0.5 μM) or BODIPY-TMR-epoxomicin (0.5 μM) for an additional 1 hour at 37° C. Reaction mixtures were boiled with Laemmli's buffer containing (3-mercaptoethanol for 5 minutes before being resolved by 12.5% SDS-PAGE. In-gel detection of residual proteasome activity was performed in the wet gel slabs directly on the TYPHOON Variable Mode Imager (Amersham Biosciences) using the Cy3/Tamra settings (λex 532 nm, λem 560 nm) to detect MV151, BODIPY-TMR-epoxomicin and Cy2/Fam settings (λex 488 nm, λem 520 nm) to detect compounds 39 and 59.
The inhibition potential of the inhibitors for each of the catalytically active subunits was assessed in competition assays employing extracts of human embryonic kidney cells (HEK-293T) and mouse lymphoma cells (EL-4) in combination with the fluorescent broad spectrum proteasome probe MV151 (Verdoes, et al. (2006) Chem. Biol. 13:1217-1226). Competitive inhibition of a proteasome active site is reflected by the disappearance of the corresponding band on a gel.

β2 proteasome subunit = target: T6, β2 proteasome subunit (Homo sapiens, UniProt P49720+Q99436); assay: as above; assay type: biochemical; conditions: HEK-293T lysate, 5 μM
T6 construct: Whole cell lysates of HEK-293T or EL-4 cells were made by sonication; endogenous in cells; host or cells: HEK-293T

Compound: CC(=O)N[C@@H](CC(C)C)C(=O)N[C@@H](CC(C)C)C(=O)N[C@@H](CCCNC(=N)N)C(=O)[C@@]1(C)CO1 [NC-002, Ac-Leu-Leu-Arg-ek]
- IC50 [1]: > 30 µM
- inhibition of lysosomal cysteine proteases (Cathepsin B, H, L, S): did not inhibit
- caspase activity (apoptosis) [2]: did not cause any significant increase in caspase activity
- IC50 (Chym-L)/IC50 (Tr-L) ([3]; rabbit 26S proteasomes): >30
- proteasome inhibitory potential on purified 26S proteasomes [4]: potent and specific inhibitors of the trypsin-like sites
- IC50 [5]: > 30 µM
- inhibition of constitutive (β2) versus immunoproteasome (β2i) trypsin-like sites (β2 and β2i sites): equipotent inhibitors of the trypsin-like sites of constitutive and immunoproteasomes
- inhibition of trypsin-like activity in live cells [6]: sub-micromolar concentrations

Compound: CC(C)C[C@H](NC(=O)CN=[N+]=[N-])C(=O)N[C@@H](CC(C)C)C(=O)N[C@@H](CCCNC(=N)N)C(=O)[C@@]1(C)CO1 [az-NC-002, Az-Gly-Leu-Leu-Arg-ek]
- subunits modified by the probe [7]: trypsin-like site-specific activity-based probe
- inhibition of cathepsin D (cathepsin D): no significant inhibition

Compound: BODIPY-triazole-Phe-Leu-Leu-Phe (4-CH2NH2)-VS [Compound 39]
- inhibition of trypsin- and chymotrypsin-like activities [3]: equipotently inhibited trypsin- and chymotrypsin-like activities
- specificity after attachment of BODIPY-FL dye [3]: complete loss of specificity
- inhibition of β2 and β5 in living cells ([8]; 5 μM): seemed not to be competed away at all
- inhibition of proteasome activity in living cells ([8]; 50 μM): not all proteasome activity was silenced
- inhibition of β5 in cell lysate (β5 proteasome subunit): all β2 and β5 proteasomal activity was inhibited
- inhibition of β2 in cell lysate (β2 proteasome subunit): all β2 and β5 proteasomal activity was inhibited
